2 molecules from patent US12024502B2, “Biased adrenergic agonists” (University of South Florida, priority 2021, dated 2024) can be followed below.

Assay [1] deals with ERK1/2. Kind of assay: ERK1/2 activation immunoblot in the presence of PKA inhibitor H89. To be noted: β2AR transfected HEK-293 cells; PKA inhibitor H89 present; vs vehicle control. The class given is cell-based, human.
Assay [2] has as its system human airway smooth muscle (HASM) cells. Description: Magnetic twisting cytometry (MTC) of HASM cells: relaxation and desensitization. The assay is classed as cell-based. To be noted: 1.0 mM ALB or 100 mM C1-S as printed, then 10 μM ISO. On the procedure:
CHW cells were transfected to stably express the human β2AR under G418 selection and maintained in monolayers as previously described. Transient transfections of HEK-293T cells with constructs to express human β-arrestin2-myc, human β-arrestin2-GFP, human β2AR and β2AR-GFP, were performed using Lipofectamine 2000 (Invitrogen), and studied 48 hrs later. CHO cells stably expressing a modified β2AR and a modified β-arrestin2 for the ECA were purchased from DiscoverX. In some experiments, these cells were transiently transfected with 5 μg GRK2 cDNA. Primary HASM cells were derived from donor lungs obtained from the National Disease Exchange Registry and maintained as monolayers, and utilized between passages 3 and 6 for the physiological studies. […]
MTC was used to measure dynamic changes in the cytoskeletal stiffness as a surrogate for agonist-induced single-cell relaxation. […] Forced bead motions were detected optically with a spatial resolution of ˜5 nm, and their changes monitored, in real time, in response to b-agonist (HASM cell relaxation). […] The response to 10 μM isoproterenol (final concentration) added to the media was then determined every 1.3 sec. […] The greatest relaxation change from baseline observed at any point over the time course was utilized to quantify the maximal HASM response to isoproterenol.

With `CC(C)(C)NCC(O)c1ccc(O)c(CO)c1` (stereo not shown) [ALB, albuterol], the “activation of ERK1/2” value in assay [1] is recorded as “activation of ERK1/2”. In addition, the “desensitization of β2AR-mediated HASM cell relaxation response to ISO” value in assay [2] (30 min pretreatment) and in assay [2] (4 hour pretreatment) was “caused desensitization” in each case.
For `CC(C)NCC(O)c1ccc(O)c(O)c1` (stereo not shown) [ISO, isoproterenol], in assay [1], the “activation of ERK1/2” value is on record as “activation of ERK1/2”.
